Experimental findings from ChEMBL document CHEMBL5143531, “Towards multi-target antidiabetic agents: In vitro and in vivo evaluation of 3,5-disubstituted indolin-2-one derivatives as novel α-glucosidase inhibitors” (Bioorg Med Chem Lett, 2022) are described below.

Test [1] in a line: Inhibition of yeast alpha-glucosidase using p-nitrophenyl glycoside as substrate preincubated with enzyme for 15 mins followed by substrate addition for 30 mins. Further details: species or system Saccharomyces cerevisiae.
Test [2] concerns Saccharomyces cerevisiae. Kind of test: Inhibition of yeast alpha-glucosidase at 100 uM.
Test [3] is described as follows: Inhibition of yeast alpha-glucosidase. Further details: species or system Saccharomyces cerevisiae.
A short description of test [4]: Inhibition of yeast alpha-glucosidase using p-nitrophenyl glycoside as substrate preincubated with enzyme for 30 mins followed by substrate addition for 60 mins by spectrophotometric analysis. Details: species or system Saccharomyces cerevisiae.
Test [5] has as its system Rattus norvegicus. Kind of test: Anti-hyperglycemic activity in Wistar rat assessed as reduction in plasma glucose AUC (0 to 120 mins) at 5 mg/kg, po followed by maltose load by oral maltose tolerance test. Type of test: functional.
Test [6] concerns Rattus norvegicus. Kind of test: Anti-hyperglycemic activity in Wistar rat assessed as reduction in plasma glucose AUC (0 to 120 mins) at 5 mg/kg, po followed by sucrose load by oral sucrose tolerance test. Type of test: functional.
For test [7], the system named is Rattus norvegicus. Kind of test: Anti-hyperglycemic activity in Wistar rat assessed as reduction in plasma glucose AUC (0 to 120 mins) at 5 mg/kg, po followed by glucose load by oral glucose tolerance test. Type of test: functional.
The test system of test [8] is Saccharomyces cerevisiae. Nature of the test: Potency index, ratio of acarbose IC50 to test compound IC50 for inhibition of yeast alpha-glucosidase.
For test [9], the target named is Glycogen synthase kinase-3 beta (Homo sapiens, UniProt P49841).
The test system of test [10] is Rattus norvegicus. Kind of test: Anti-hyperglycemic activity in Wistar rat assessed as reduction in plasma glucose AUC (0 to 120 mins) at 10 mg/kg, po followed by sucrose load by oral sucrose tolerance test. Type of test: functional.
Test [11] concerns Rattus norvegicus. Nature of the test: Anti-hyperglycemic activity in Wistar rat assessed as reduction in plasma glucose AUC (0 to 120 mins) at 10 mg/kg, po followed by glucose load by oral glucose tolerance test. Type of test: functional.

Chain of Glycogen synthase kinase-3 beta (P49841 whole entry): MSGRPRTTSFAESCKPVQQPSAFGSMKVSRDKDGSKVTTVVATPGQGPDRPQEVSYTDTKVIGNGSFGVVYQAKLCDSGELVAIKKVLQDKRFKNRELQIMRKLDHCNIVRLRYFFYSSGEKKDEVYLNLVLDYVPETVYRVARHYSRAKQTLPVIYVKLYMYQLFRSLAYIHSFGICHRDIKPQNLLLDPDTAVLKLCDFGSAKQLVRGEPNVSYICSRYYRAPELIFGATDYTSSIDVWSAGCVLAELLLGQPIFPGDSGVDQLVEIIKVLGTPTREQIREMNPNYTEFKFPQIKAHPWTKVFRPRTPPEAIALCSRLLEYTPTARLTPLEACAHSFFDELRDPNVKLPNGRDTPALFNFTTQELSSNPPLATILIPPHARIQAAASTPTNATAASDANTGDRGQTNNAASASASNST

`O=C(N/N=C/c1cc(O)c(O)c(O)c1)c1cc2ccccc2[nH]1`: in test [1], half-maximal inhibition (IC50) required 2.3 µM.

For the compound `COc1ccc2c(c1)C(O)(CC(=O)c1ccc(C)cc1)C(=O)N2` (stereo unspecified), the inhibition in [2] worked out at 65.4%. In [3], it took 60 µM to reach half-maximal inhibition (IC50).

For `COC(=O)Nc1ccc2c(c1)C(=Cc1ccc(O)cc1)C(=O)N2`, the inhibition in test [2] was 57.9%. The compound further had an IC50 in test [3] of 76.7 µM.

As to `O=C(CSc1nnc2c(n1)[nH]c1ccccc12)c1cccc(O)c1`, the IC50 in [4] amounted to 2.5 µM.

Regarding `CC(=O)Nc1ccc2c(c1)C(CC(=O)O)(OC(C)=O)C(=O)N2` (stereo unspecified), the inhibition in test [2] was -5.09%.

On to `CCC(=O)Nc1cc(NC(=O)CC)c2c(c1)C(CC#N)(OC(=O)CC)C(=O)N2` (stereo unspecified), for which the inhibition in test [2] came to 14.4%.

Consider `CN1C(=O)C(=Cc2ccccn2)c2ccccc21`, for which the inhibition in test [2] amounted to 19.9%.

With `CN1C(=O)C2(CC2C#N)c2cc(Br)ccc21` (stereo unspecified), the inhibition in test [2] was found to be 61.2%.

Regarding `COc1cc(C=C2C(=O)Nc3ccc(NC(C)=O)cc32)cc(OC)c1OC`, the inhibition in test [2] was -9.74%.

`COc1cc(NC(C)=O)c2c(c1)C(CC#N)(OC(C)=O)C(=O)N2` (stereo unspecified): the inhibition in test [2] came to 4.75%.

With `COc1ccc(C(=O)CC2(O)C(=O)Nc3ccc(Br)cc32)cc1` (stereo unspecified), in [2], the inhibition is -3.83%.

With `Cc1ccc(C(=O)CC2(O)C(=O)Nc3ccc(Br)cc32)cc1` (stereo unspecified), the inhibition in test [2] is -3.94%.

`Cc1ccc(C(=O)CC2(O)C(=O)Nc3ccc(NC(=O)c4ccccc4)cc32)cc1` (stereo unspecified): in [2], the inhibition worked out at 52.2%.

As to `Cc1ccc(C(=O)CC2(O)C(=O)Nc3ccccc32)cc1` (stereo unspecified), in test [2], the inhibition is -4.01%.

As to `Cn1cc(C=C2C(=O)Nc3ccccc32)cn1`, the inhibition in test [2] was found to be 34.5%.

Turning to `N#CCC1(O)C(=O)Nc2ccc(NC(=O)c3ccccc3)cc21` (stereo unspecified), in test [2], the inhibition was 29.2%.

As for `Nc1ccc(CC2C(=O)Nc3ccccc32)cc1` (stereo unspecified), in test [2], the inhibition is -3.64%.

With `O=C1Nc2ccc(Br)cc2C1=Cc1ccccn1`, in test [2], the inhibition is -1.49%.

On to `O=C1Nc2ccc(Br)cc2C1=Cc1cccnc1`, for which the inhibition in [2] was found to be 10.7%.

For the compound `O=C1Nc2ccc([N+](=O)[O-])cc2C1=Cc1cccnc1`, the inhibition in [2] was -7.99%.

For the compound `O=C1Nc2ccccc2C12CC2c1ccccn1` (stereo unspecified), the inhibition in test [2] was 12.1%.

Consider `O=C1Nc2ccccc2C1=Cc1ccccn1`, for which, in [2], the inhibition is -10%.

Consider `COC(=O)Nc1ccc2c(c1)C(=Cc1ccc([N+](=O)[O-])cc1)C(=O)N2` (mixture of isomers), for which the inhibition in test [2] was 103%. Further, it took 6.78 µM to reach half-maximal inhibition in test [3] (IC50). Besides, the figures for the inhibition in vivo at 5 mg/kg in test [5], in test [6] and in test [7] were 42.1%, 28.8% and 12.3%, respectively. Besides, in test [8], the Ratio IC50 is 80.

For `O=C1Nc2ccccc2C1=Cc1ccc([N+](=O)[O-])cc1` (mixture of isomers), the inhibition in [2] was 81.6%. Moreover, in test [3], 62.4 µM corresponded to half-maximal inhibition (IC50).

`COC(=O)Nc1ccc2c(c1)C(=Cc1ccc(Br)cc1)C(=O)N2` (mixture of isomers): in test [2], the inhibition turned out to be 81.7%. Further, in test [3], it took 68.9 µM to reach half-maximal inhibition (IC50).

`O=C1Nc2ccc(NC(=O)c3ccccc3)cc2C1=Cc1ccc([N+](=O)[O-])cc1` (mixture of isomers): the inhibition in [2] was found to be 104%. In [3], this compound gave an IC50 of 56.6 µM.

Regarding `COc1ccc2c(c1)C(=CC(=O)O)C(=O)N2` (mixture of isomers), the inhibition in test [2] stood at 81.1%. Moreover, in test [3], the midpoint of inhibition, the IC50, lay at 26.4 µM.

For `O=C1Nc2ccc(NC(=O)c3ccccc3)cc2C1=Cc1ccc(O)cc1` (mixture of isomers), in [2], the inhibition amounted to 92.3%. For the same compound, the IC50 in test [3] was found to be 136 µM; in [9], 4.34 µM.

In the case of `CN1C(=O)C(=Cc2ccc(O)cc2)c2ccccc21` (mixture of isomers), the inhibition in [2] came to 33.2%.

For the compound `Cc1[nH]ncc1C=C1C(=O)Nc2ccccc21` (mixture of isomers), the inhibition in test [2] was found to be 40.8%.

Take `Cc1n[nH]c(C)c1C=C1C(=O)Nc2ccccc21` (mixture of isomers): the inhibition in test [2] amounted to 12.6%.

As to `O=C1Nc2ccc(Br)cc2C1=CC(=O)c1ccco1` (mixture of isomers), the inhibition in [2] is -3.81%.

Turning to `O=C1Nc2ccc(Br)cc2C1=Cc1ccncc1` (mixture of isomers), the inhibition in test [2] is -0.73%.

With `O=C1Nc2ccc(NC(=O)c3ccco3)cc2C1=Cc1ccc(O)cc1` (mixture of isomers), the inhibition in test [2] was 57.9%.

With `O=C1Nc2ccc([N+](=O)[O-])cc2C1=Cc1ccncc1` (mixture of isomers), the inhibition in [2] is -1.71%.

As to `O=C1Nc2ccc([N+](=O)[O-])cc2C1=Cc1cn[nH]c1C(=O)O` (mixture of isomers), the inhibition in test [2] came out at 33.6%.

In the case of `O=C1Nc2ccccc2C1=CC(=O)c1ccco1` (mixture of isomers), the inhibition in test [2] came out at 37.5%.

For `O=C1Nc2ccccc2C1=Cc1cccnc1` (mixture of isomers), the inhibition in [2] worked out at 2.08%.

Regarding `O=C1Nc2ccccc2C1=Cc1cccs1` (mixture of isomers), in [2], the inhibition was -1.25%.

As for `O=C1Nc2ccccc2C1=Cc1ccncc1` (mixture of isomers), the inhibition in [2] is -3.17%.

As for `O=C1Nc2ccccc2C1=Cc1cn[nH]c1C(=O)O` (mixture of isomers), the inhibition in test [2] turned out to be 11.4%.

For the compound `Cc1nn(-c2ccccc2)c(C)c1C=C1C(=O)Nc2ccccc21` (single isomer, unassigned), the inhibition in test [2] is 75.5%. The compound further gave an IC50 in [3] of 153 µM.

Regarding `CC(=O)Nc1ccc2c(c1)C(=Cc1cccc(O)c1)C(=O)N2` (single isomer, unassigned; isomer 1), the inhibition in test [2] is 14.9%.

For `COc1cc(C=C2C(=O)Nc3ccc(NC(=O)c4ccco4)cc32)cc(OC)c1OC` (single isomer, unassigned; isomer 1), the inhibition in [2] was 31.8%.

For the compound `COc1ccc2c(c1)C(=CC#N)C(=O)N2Cc1ccccc1` (single isomer, unassigned; isomer 1), the inhibition in test [2] came to 15.5%.

For `O=C1Nc2ccc([N+](=O)[O-])cc2C1=CC(=O)c1ccco1` (single isomer, unassigned; isomer 1), the inhibition in test [2] was 8.9%.

On to `O=C1Nc2ccccc2C1=Cc1ccc(O)cc1` (single isomer, unassigned; isomer 1), for which, in test [2], the inhibition worked out at 21.6%.

As to `C[C@H]1O[C@H](O[C@H]2[C@H](O)[C@@H](O)[C@@H](O[C@H]3[C@H](O)[C@@H](O)C(O)O[C@@H]3CO)O[C@@H]2CO)[C@H](O)[C@@H](O)[C@@H]1N[C@H]1C=C(CO)[C@@H](O)[C@H](O)[C@H]1O` (stereo partly specified) [ACARBOSE], the inhibition in test [2] is 46.6%. Also, in [3], inhibition was half-maximal at 436 µM (IC50). Besides, the inhibition in vivo at 5 mg/kg in [5] amounted to 37.2%.

For the compound `N#C[C@@H]1CCCN1C(=O)CNC12CC3CC(CC(O)(C3)C1)C2` [VILDAGLIPTIN], the inhibition in vivo at 10 mg/kg in [10] came to 17.9%; in test [11], 28.6%.
